This is an account of results in the NIST ThermoML archive (doi:10.1016/j.fluid.2012.10.015).

Numbers after ± are expanded uncertainties.

What is called refractive index is the speed of light in vacuum divided by its phase velocity in the sample. By mass density is commonly meant the mass of a sample divided by its volume. For orientation: vapor or sublimation pressure means the equilibrium pressure above the liquid or solid.

Series [1] is described as follows: refractive index (Na D-line) (dimensionless). Conditions: 298.15 K; 101.33 kPa; Liquid; Standard Abbe refractometry.
For series [2] the following is noted: Liquid; for mass density: 101.33 kPa, Vibrating tube method; for vapor or sublimation pressure: Closed cell (Static) method.

In the case of `CCCCCl` [1-chlorobutane], the refractive index in series [1] worked out at 1.39953 ± 0.00068. In addition, the mass density in series [2] (298.15 K) is listed as 881.172 ± 2.2 kg/m3. Moreover, the “vapor or sublimation pressure” value in series [2] (298.15 K) amounted to 13.72 ± 0.15 kPa; in series [2] (308.15 K) it was 20.66 ± 0.19 kPa; in series [2] (318.15 K) it was 31.46 ± 0.23 kPa.

In the case of `CC[N+](=O)[O-]` [nitroethane], the refractive index in series [1] was determined as 1.38951 ± 0.00071. The mass density in series [2] (298.15 K) stood at 1044.21 ± 2.3 kg/m3. Moreover, the “vapor or sublimation pressure” value in series [2] (298.15 K) was 2.95 ± 0.05 kPa; in series [2] (308.15 K) it was 4.69 ± 0.06 kPa; in series [2] (318.15 K) it was 7.24 ± 0.07 kPa.

Consider `C[N+](=O)[O-]` [nitromethane], for which the refractive index in series [1] was 1.37956 ± 0.00072. In series [2] (298.15 K), the mass density is recorded as 1130.87 ± 2.3 kg/m3. Besides, the “vapor or sublimation pressure” value was 4.83 ± 0.07 kPa in series [2] (298.15 K), 7.5 ± 0.09 kPa in series [2] (308.15 K) and 12.57 ± 0.11 kPa in series [2] (318.15 K).

Consider `CCCCCCl` [1-chloropentane], for which the refractive index in series [1] was 1.41015 ± 0.00068. Also, the mass density in series [2] (298.15 K) is on record as 877.089 ± 2.2 kg/m3. Moreover, the “vapor or sublimation pressure” value in series [2] (298.15 K) was found to be 4.24 ± 0.07 kPa; in series [2] (308.15 K) it was 7.09 ± 0.08 kPa; in series [2] (318.15 K), 10.91 ± 0.09 kPa.
